# Laboratory results as given in patent US4971967A, “Quinolinecarboxylic acid derivatives, antibacterial compositions and use” (Kanebo Ltd, priority 1989, dated 1990).
# Where a name gives a salt, the structure may show the parent alone.
# Assays:
# [1] = system: Staphylococcus aureus FDA 209P JC-1; assay: Antibacterial activity (MIC), S. aureus FDA 209P JC-1; format: cell-based; settings: FDA209P; Staphylococcus aureus FDA 209P JC-1, Gram +; read-out: Minimum inhibitory concentration (MIC)
# Description: (§1) The compounds of the present invention (A, C, D, E, F, G, H, I, J, L, O and P) and the known compound (X) as reference were dissolved in 0.1 N aqueous sodium hydroxide to prepare a solution of 5000 μg/ml in concentration. The compounds of the present invention (B, K, M and N) and the known compound (Y) were dissolved in sterilized distilled water to prepare a solution of 5000 μg/ml in concentration. Each solution was diluted with sterilized distilled water to prepare a standard solution with a concentration of each test compound: 1000 μg/ml. The test was carried out by a method as appointed by Japan Society of Chemotherapy [cf. Chemotherapy, 29, 76-79 (1981)(TOKYO)].
# [2] = system: Staphylococcus aureus IID 803; assay: Antibacterial activity (MIC), S. aureus IID 803; format: cell-based; settings: IID803; Staphylococcus aureus IID 803, Gram +; read-out: Minimum inhibitory concentration (MIC)
# Description: as §1
# [3] = system: Staphylococcus epidermidis IAM-1296; assay: Antibacterial activity (MIC), S. epidermidis IAM-1296; format: cell-based; settings: Staphylococcus epidermidis, IAM1296, Staphylococcus epidermidis IAM-1296, Gram +; read-out: Minimum inhibitory concentration (MIC)
# Description: as §1
# [4] = system: Streptococcus faecalis IID 682; assay: Antibacterial activity (MIC), Streptococcus faecalis IID 682; format: cell-based; settings: Enterococcus faecalis, IID682, Streptococcus faecalis IID 682, Gram +; read-out: Minimum inhibitory concentration (MIC)
# Description: as §1
# [5] = system: Bacillus subtilis ATCC 6633; assay: Antibacterial activity (MIC), Bacillus subtilis ATCC 6633; format: cell-based; settings: Bacillus subtilis, ATCC6633, Bacillus subtilis ATCC 6633, Gram +; read-out: Minimum inhibitory concentration (MIC)
# Description: as §1
# [6] = system: Micrococcus luteus ATCC 9341; assay: Antibacterial activity (MIC), Micrococcus luteus ATCC 9341; format: cell-based; settings: ATCC9341; Micrococcus luteus ATCC 9341, Gram +; read-out: Minimum inhibitory concentration (MIC)
# Description: as §1
# [7] = system: Escherichia coli NIHJ JC-2; assay: Antibacterial activity (MIC), E. coli NIHJ JC-2; format: cell-based; settings: NIHJJC2; Escherichia coli NIHJ JC-2, Gram -; read-out: Minimum inhibitory concentration (MIC)
# Description: as §1
# [8] = system: Escherichia coli KC-14; assay: Antibacterial activity (MIC), E. coli KC-14; format: cell-based; settings: KC14; Escherichia coli KC-14, Gram -; read-out: Minimum inhibitory concentration (MIC)
# Description: as §1
# [9] = system: Klebsiella pneumoniae PCI-602; assay: Antibacterial activity (MIC), Klebsiella pneumoniae PCI-602; format: cell-based; settings: Klebsiella pneumoniae, PCI602, read-out: Minimum inhibitory concentration (MIC)
# Description: as §1
# [10] = system: Salmonella typhimurium IID 971; assay: Antibacterial activity (MIC), Salmonella typhimurium IID 971; format: cell-based; settings: Salmonella enterica; Salmonella typhimurium IID 971, Gram -; read-out: Minimum inhibitory concentration (MIC)
# Description: as §1
# [11] = system: Shigella sonnei EW-33; assay: Antibacterial activity (MIC), Shigella sonnei EW-33; format: cell-based; settings: Shigella sonnei, EW33, Shigella sonnei EW-33, Gram -; read-out: Minimum inhibitory concentration (MIC)
# Description: as §1
# [12] = system: Serratia marcescens IAM 1184; assay: Antibacterial activity (MIC), Serratia marcescens IAM 1184; format: cell-based; settings: Serratia marcescens, IAM1184, Serratia marcescens IAM 1184, Gram -; read-out: Minimum inhibitory concentration (MIC)
# Description: as §1
# [13] = system: Pseudomonas aeruginosa IFO 3445; assay: Antibacterial activity (MIC), P. aeruginosa IFO 3445; format: cell-based; settings: Pseudomonas aeruginosa, IFO3445, Pseudomonas aeruginosa IFO 3445, Gram -; read-out: Minimum inhibitory concentration (MIC)
# Description: as §1
# [14] = system: Pseudomonas aeruginosa NCTC 10490; assay: Antibacterial activity (MIC), P. aeruginosa NCTC 10490; format: cell-based; settings: Pseudomonas aeruginosa, NCTC10490, Pseudomonas aeruginosa NCTC 10490, Gram -; read-out: Minimum inhibitory concentration (MIC)
# Description: as §1
# [15] = system: Pseudomonas aeruginosa E-2; assay: Antibacterial activity (MIC), P. aeruginosa E-2; format: cell-based; settings: E2; Pseudomonas aeruginosa E-2, Gram -; read-out: Minimum inhibitory concentration (MIC)
# Description: as §1
# [16] = system: Morganella morganii IFO 3848; assay: Antibacterial activity (MIC), Morganella morganii IFO 3848; format: cell-based; settings: Morganella morganii, IFO3848, Morganella morganii IFO 3848, Gram -; read-out: Minimum inhibitory concentration (MIC)
# Description: as §1
# [17] = system: Proteus vulgaris OX-19; assay: Antibacterial activity (MIC), Proteus vulgaris OX-19; format: cell-based; settings: OX19; Proteus vulgaris OX-19, Gram -; read-out: Minimum inhibitory concentration (MIC)
# Description: as §1
# [18] = system: Proteus mirabilis IFO 3849; assay: Antibacterial activity (MIC), Proteus mirabilis IFO 3849; format: cell-based; settings: IFO3849; Proteus mirabilis IFO 3849, Gram -; read-out: Minimum inhibitory concentration (MIC)
# Description: as §1
# [19] = system: Enterobacter aerogenes ATCC 13048; assay: Antibacterial activity (MIC), Enterobacter aerogenes ATCC 13048; format: cell-based; settings: Klebsiella aerogenes, ATCC13048; Enterobacter aerogenes ATCC 13048, Gram -; read-out: Minimum inhibitory concentration (MIC)
# Description: as §1
# [20] = system: Enterobacter cloacae 963; assay: Antibacterial activity (MIC), Enterobacter cloacae 963; format: cell-based; settings: Enterobacter cloacae, 963, Enterobacter cloacae 963, Gram -; read-out: Minimum inhibitory concentration (MIC)
# Description: as §1
# [21] = system: Citrobacter freundii NIHJ 10018-68; assay: Antibacterial activity (MIC), Citrobacter freundii NIHJ 10018-68; format: cell-based; settings: Citrobacter freundii, NIHJ10018, Citrobacter freundii NIHJ 10018-68, Gram -; read-out: Minimum inhibitory concentration (MIC)
# Description: as §1
# [22] = system: Acinetobacter calcoaceticus AC 54; assay: Antibacterial activity (MIC), Acinetobacter calcoaceticus AC 54; format: cell-based; settings: AC54; Acinetobacter calcoaceticus AC 54, Gram -; read-out: Minimum inhibitory concentration (MIC)
# Description: as §1
# [23] = system: clinically isolated methicillin resistant Staphylococcus aureus; assay: MIC against clinically isolated methicillin resistant Staphylococcus aureus; format: cell-based; settings: 54 strains
# Description: The compounds (A) and (J) of the present invention and the known compound (X) were dissolved in 0.1 N aqueous sodium hydroxide, and the known compound (Y) in sterilized distilled water, to prepare a solution of 5000 μg/ml in concentration each. The above solutions were then diluted with sterilized distilled water to prepare a standard solution with a concentration of the test compound: 1000 μg/ml each. The test was carried out by a method appointed by Japan Society of Chemotherapy (ibidem) to measure minimum inhibitory concentration (MIC) against 54 strains of clinically isolated methicillin resistant Staphylococcus aureus, from which there were calculated a range of MIC (MICrange) of the test compound against these resistant strains, a minimum concentration for inhibiting the growth of the strains by 50% (MIC50) and a minimum concentration for inhibiting the growth of the strains by 90% (MIC90).
# [24] = system: Staphylococcus aureus IID 803; assay: Effect on treatment of general infectious disease, S. aureus IID 803 (Experiment 3); format: in vivo, ddY male mice infected with Staphylococcus aureus; settings: IID803, 168 h, oral, 1 h after i.p. infection, 5.0×10^7 CFU/mouse, survival after one week
# Description: Staphylococcus aureus IID 803 (5.0×10^7 CFU/mouse)
# (§2) The test microorganisms were subjected to standing culture in Trypto-Soya Agar "Nissui" (made by Nissui Seiyaku K.K., Japan) at 37° C. for 16 to 18 hours. The culture was then diluted with PBS (Dulbecco's phosphate buffered saline) and mixed with an equivalent amount of 10% (w/v) Mucin (BACTO MUCIN BACTERIOLOGICAL, made by Difco Co.) to prepare a microorganism solution. The thus prepared microorganism solution (0.5 ml each) was intraperitoneally inoculated to ddY male mice (5 weeks age, weighing 25-28 g, 5 mice in each group), to infect the animals. One hour after the infection, the compound (A) or (J) of the present invention or the known compound (X) suspended in 1% (w/v) aqueous gum arabic or the known compound (Y) dissolved in sterilized distilled water was orally adiministered to mice.
# (§3) The mice were daily observed for one week, and from the survival number of mice after one week, the 50% effective dose (ED50) was calculated by Weil method.
# [25] = system: Pseudomonas aeruginosa E-2; assay: Effect on treatment of general infectious disease, P. aeruginosa E-2 (Experiment 3); format: in vivo, ddY male mice infected with Pseudomonas aeruginosa; settings: E2, 168 h, oral, 1 h after i.p. infection, 3.1×10^4 CFU/mouse, survival after one week
# Description: Pseudomonas aeruginosa E-2 (3.1×10^4 CFU/mouse)
# as §2, §3
smiles,measurement,setting,value
"CN1CCN(c2c(F)cc3c(=O)c(C(=O)O)c4scc5n4c3c2OC5)CC1 [Compound (Y), 9,1-Epoxymethano-7-fluoro-8-(4-methyl-1-piperazinyl)-5-oxo-5H-thiazolo[3,2-a]quinoline-4-carboxylic acid hydrochloride, reference compound]",MIC,[1],0.2 µg/mL
same,MIC,[2],0.2 µg/mL
same,MIC,[3],0.39 µg/mL
same,MIC,[4],0.78 µg/mL
same,MIC,[5],0.1 µg/mL
same,MIC,[6],1.56 µg/mL
same,MIC,[7],0.1 µg/mL
same,MIC,[8],0.1 µg/mL
same,MIC,[9],0.025 µg/mL
same,MIC,[10],0.05 µg/mL
same,MIC,[11],0.05 µg/mL
same,MIC,[12],0.39 µg/mL
same,MIC,[13],1.56 µg/mL
same,MIC,[14],0.78 µg/mL
same,MIC,[15],0.78 µg/mL
same,MIC,[16],0.1 µg/mL
same,MIC,[17],0.05 µg/mL
same,MIC,[18],0.2 µg/mL
same,MIC,[19],0.1 µg/mL
same,MIC,[20],0.1 µg/mL
same,MIC,[21],0.2 µg/mL
same,MIC,[22],0.2 µg/mL
same,MIC,[23],0.05 to 0.39 µg/mL
same,MIC50,[23]; minimum concentration for inhibiting growth of the strains by 50%,0.1 µg/mL
same,MIC90,[23]; minimum concentration for inhibiting growth of the strains by 90%,0.2 µg/mL
same,ED50,[24],11.7 mg/kg
same,ED50,[25],11.7 mg/kg
